Data as given in PubChem BioAssay AID1259333 (Broad Institute, 2017).
Active and inactive are the calls of the source. The rule behind the calls is not given here; tested in parental BL2 cells.

test: cell cytotoxicity, dose response, cytotoxicity control, CellTiter-Glo (AID 1259333); details: cytotoxicity, CellTiter-Glo ATP luminescence; at 3.5 µM (top of the series);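 note: 0% = vehicle neutral controls and -100% = reference inhibitor positive controls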

Question: With `C[C@@H]1CCCCO[C@@H](CN(C)C(=O)C2CCCCC2)[C@@H](C)CN([C@H](C)CO)C(=O)c2cc(NS(=O)(=O)c3ccccc3)ccc2O1` as the compound, how does the activity change, negative = cytotoxicity read?
Answer: 22.5% (inactive)

Question: Which activity change, negative = cytotoxicity does the source give for `CC(C)(C)c1cc(/C=C(\C#N)C(N)=S)cc(C(C)(C)C)c1O` here?
Answer: 26.8% (inactive)

Question: For `C[C@@H]1CN([C@@H](C)CO)C(=O)Cc2cc(NS(=O)(=O)c3ccccc3)ccc2O[C@H]1CN(C)Cc1ccc(Cl)c(Cl)c1`, which activity change, negative = cytotoxicity is on record?
Answer: 24.1% (inactive)

Question: For `N#C[C@H]1[C@H](c2ccc(C#CC3CCCCC3)cc2)[C@@H](CO)N1C(=O)Nc1ccc(F)cc1`, which activity change, negative = cytotoxicity is on record?
Answer: 25.8% (inactive)

Question: With `C[C@]12CC[C@H](O)C[C@H]1CC[C@@H]1[C@@H]2CC[C@]2(C)[C@@H](c3ccc(=O)oc3)CC[C@]12O` as the compound, how does the activity change, negative = cytotoxicity read?
Answer: 25.8% (inactive)

Question: Which activity change, negative = cytotoxicity does the source give for `O=C(Nc1ccc(C(F)(F)F)cc1)Nc1ccc2c(c1)[C@H]1C[C@@H](CC(=O)N3CCc4ccccc4C3)O[C@@H](CO)[C@H]1O2` here?
Answer: 30.5% (inactive)

same assay, conditions: cytotoxicity, CellTiter-Glo ATP luminescence; at 9 µM (top of the series)

Question: With `C[C@@H]1CN([C@H](C)CO)C(=O)c2c(c3ccccc3n2C)-c2ccccc2CO[C@@H]1CN(C)S(=O)(=O)c1ccccc1C#N` as the compound, how does the activity change, negative = cytotoxicity read?
Answer: 42.3% (inactive)

same assay, conditions: cytotoxicity, CellTiter-Glo ATP luminescence; at 10 µM (top of the series)

Question: Which activity change, negative = cytotoxicity does the source give for `O=S(=O)(CCSc1ccccn1)c1nc2ccccc2s1` here?
Answer: 55.1% (inactive)

Question: Which activity change, negative = cytotoxicity does the source give for `O=C1C(=NO)CCc2ccccc21` here?
Answer: 115% (inactive)

Question: With `N#Cc1cccc(-c2ccc([C@@H]3[C@@H]4CN(S(=O)(=O)c5ccc(-c6ccccc6)cc5)C[C@H]3N4)cc2)c1` as the compound, how does the activity change, negative = cytotoxicity read?
Answer: 25.4% (inactive)

Question: Which activity change, negative = cytotoxicity does the source give for `NS(=O)(=O)c1nn2cc(-c3ccccc3)nc2s1` here?
Answer: 65.7% (inactive)

Question: Which activity change, negative = cytotoxicity does the source give for `CC(C)CC#Cc1ccc([C@@H]2[C@H]3CN(C(=O)Nc4ccccc4)CCCCN3[C@H]2CO)cc1` here?
Answer: 40.2% (inactive)

Question: With `N#C[C@H]1[C@H](c2ccc(C#Cc3ccc(F)cc3)cc2)[C@@H](CO)N1C(=O)C1CCC1` as the compound, how does the activity change, negative = cytotoxicity read?
Answer: -4.11% (inactive)

Question: Which activity change, negative = cytotoxicity does the source give for `O=C(NCc1ccccn1)C1CCCN(S(=O)(=O)c2ccccc2)C1` (stereo not given) here?
Answer: 44.9% (inactive)

Question: For `O=C(CCN1CCC(c2ccccc2)C1)c1ccc2c(c1)OCCO2` (stereo not given), which activity change, negative = cytotoxicity is on record?
Answer: 28% (inactive)

Question: Which activity change, negative = cytotoxicity does the source give for `N#C[C@@H]1[C@H](c2ccc(C#Cc3ccc(F)cc3)cc2)[C@@H](CO)N1C(=O)C1CCC1` here?
Answer: 5.33% (inactive)

Question: Which activity change, negative = cytotoxicity does the source give for `C=C1C(=O)OC2C=C(CO)CCC=C(CO)CC(OC(=O)C(C)C)C12` (stereo not given) here?
Answer: 38.2% (inactive)

Question: For `COCCn1c(C)cc(C(=O)COC(=O)c2ccc(Br)o2)c1C`, which activity change, negative = cytotoxicity is on record?
Answer: 28.5% (inactive)

Question: Which activity change, negative = cytotoxicity does the source give for `CCCCCCCCCc1ccc(OCCOCCOCCOCCOCCOCCOCCOCCOCCO)cc1` here?
Answer: 13.3% (inactive)

Question: With `COc1ccc(S(=O)(=O)N(C)C[C@@H]2Oc3ccc(NC(=O)Nc4ccc(C(F)(F)F)cc4)cc3C(=O)N([C@H](C)CO)C[C@H]2C)cc1` as the compound, how does the activity change, negative = cytotoxicity read?
Answer: 22.7% (inactive)

Question: For `CC(=O)[C@]1(O)Cc2c(O)c3c(c(O)c2[C@@H](O[C@H]2C[C@H](N)[C@H](O)[C@H](C)O2)C1)C(=O)c1ccccc1C3=O`, which activity change, negative = cytotoxicity is on record?
Answer: -5.56% (inactive)

Question: Which activity change, negative = cytotoxicity does the source give for `CCc1cnc(N2[C@H](C#N)[C@H](c3ccc(C#Cc4ccccc4F)cc3)[C@H]2CO)s1` here?
Answer: 12.3% (inactive)

Question: Which activity change, negative = cytotoxicity does the source give for `C[C@H]1CCCCO[C@H](CN(C)Cc2ccc(C(F)(F)F)cc2)[C@@H](C)CN([C@@H](C)CO)C(=O)c2cc(NC(=O)Nc3cccc4ccccc34)ccc2O1` here?
Answer: 29.1% (inactive)

Question: With `Cc1ccc(-c2nn3c(C)nnc3c3ccccc23)cc1S(=O)(=O)NCc1ccccc1` as the compound, how does the activity change, negative = cytotoxicity read?
Answer: 16.1% (inactive)

Question: Which activity change, negative = cytotoxicity does the source give for `CCN1C(=O)C(CC(=O)Nc2ccc(F)cc2)N(Cc2ccco2)C1=S` (stereo not given) here?
Answer: 18% (inactive)

Question: With `CS(=O)(=O)c1ccc(C(=O)OCC(=O)NC(=O)C2COc3ccccc3O2)cc1[N+](=O)[O-]` (stereo not given) as the compound, how does the activity change, negative = cytotoxicity read?
Answer: 25.3% (inactive)

Question: With `COc1ccc(-c2cnc3c(c2)C(=O)N([C@H](C)CO)C[C@@H](C)[C@@H](CN(C)C(=O)Nc2c(C)noc2C)O3)cc1` as the compound, how does the activity change, negative = cytotoxicity read?
Answer: 49.3% (inactive)

Question: With `COc1ccc(C#Cc2ccc([C@H]3[C@H]4CN(C(=O)c5ccncc5)CCCCN4[C@H]3CO)cc2)cc1` as the compound, how does the activity change, negative = cytotoxicity read?
Answer: 30.7% (inactive)

Question: Which activity change, negative = cytotoxicity does the source give for `O=C(C1CC1)N1C[C@@H]2N[C@H](C1)C2c1ccc(-c2cccc(F)c2)cc1` (stereo not given in full) here?
Answer: -17.6% (inactive)

Question: Which activity change, negative = cytotoxicity does the source give for `C[C@@H]1CN([C@H](C)CO)C(=O)c2cc(NS(=O)(=O)c3cccs3)ccc2O[C@@H](C)CCCCO[C@H]1CN(C)Cc1ccc(Cl)c(Cl)c1` here?
Answer: 16.1% (inactive)

Question: With `CC[C@@]1(O)C(=O)OCc2c1cc1n(c2=O)Cc2cc3cc(O)ccc3nc2-1` as the compound, how does the activity change, negative = cytotoxicity read?
Answer: 12.3% (inactive)

Question: With `Cc1ccc(C(CC(=O)NCc2ccco2)c2ccc(OC(C)C)cc2)cc1` (stereo not given) as the compound, how does the activity change, negative = cytotoxicity read?
Answer: -3.48% (inactive)

Question: Which activity change, negative = cytotoxicity does the source give for `COc1cccc(S(=O)(=O)N(C)C[C@@H]2OCc3ccccc3-c3c(n(C)c4ccccc34)C(=O)N([C@H](C)CO)C[C@H]2C)c1` here?
Answer: 9.22% (inactive)

Question: Which activity change, negative = cytotoxicity does the source give for `COc1ccc(S(=O)(=O)N(C)C[C@@H]2Oc3ccc(NC(=O)Nc4ccc(C(F)(F)F)cc4)cc3C(=O)N([C@@H](C)CO)C[C@@H]2C)cc1` here?
Answer: 84.5% (inactive)

Question: Which activity change, negative = cytotoxicity does the source give for `CC1CC(C)(C)Nc2ccc(OC(=O)c3ccco3)cc21` (stereo not given) here?
Answer: 203% (inactive)
